Results taken from patent US12310967B2, “Compositions and methods of treatment for neurological disorders comprising motor neuron diseases” (Gliapharm SA, priority 2017, dated 2025).

Legend:
[1] = In vivo pharmacokinetics (microdialysis of prefrontal cortex and plasma); parameters: species or system mouse; details: gavage 100 mg/kg; therapeutic range 100 nM to 1 uM
Experimental: Mice were anesthetized using isoflurane (2% and 800 mL/min 02). Before surgery, Finadyne (1 mg/kg, s.c.) was administered for analgesia during surgery and the post-surgical recovery period. A mixture of bupivacaine and epinephrine was used for local anesthesia of the incision site of the periost of the skull.
The animals were placed in a stereotaxic frame (Kopf instruments, USA). MetaQuant microdialysis probes with a 3 mm exposed polyacrylonitrile membrane (MQ-PAN 3/3, Brainlink, the Netherlands) were implanted into the prefrontal cortex (coordinates for the tip of the probe: AP=+2.0 mm (to bregma), lateral=−0.7 mm (to midline), ventral=−3.3 mm (to dura), with the incisor bar set at 0.0 mm and an angle of 8°). All coordinates were based on “The mouse brain in stereotaxic coordinates” by Paxinos and Franklin (2004). The probes were attached to the skull with a stainless steel screw and dental cement (Fuji Plus Capsules, Henry Schein, the Netherlands).
In the same surgical procedure, a catheter was placed into the jugular vein to accommodate blood sampling. An indwelling cannula was inserted into the right jugular vein, and exteriorized through an incision on top of the skull. […]
PK was measured for GP-04, GP-05, GP-07, GP-R1 and GP-P1 in the prefrontal cortex and plasma of wild type C56Bl/6 mice by CRO Brainsonline.

primary mouse astrocytes = assay: Extracellular lactate quantification, Example 2; assay type: cell-based; details: Astrocyte, 3 nM to 30 μM, 1.5 h, read-out: EC50 release of lactate
Experimental: Primary cultures of cerebrocortical astrocytes were obtained from 1 to 2-day-old OF1 mouse pups (Charles River). Briefly, cortices were isolated and minced in small pieces under a dissecting microscope. The cells were incubated for 30 min at 37° C. in a solution containing 20 U/ml papain, 1 mM L-cysteine and 10 kU/ml DNase I. After dissociation, papain activity was stopped by the addition of fetal calf serum (FCS). Single-cell suspension was then obtained by mechanical dissociation, which consisted in cells trituration in a DMEM D7777 medium supplemented with 44 mm NaHCO3, 10 ml/L antibiotic/antimycotic solution and 10% FCS. […]
Secretion of L-lactate was measured in the extracellular medium of 96-well plated astrocytes after 90 min stimulation (at 37° C., in 5% CO2/95% air conditions) with Vehicle (DMSO), the compounds of the invention (100 nM to 100 μM) or positive control. […] To quantify lactate concentrations in the extracellular medium, 200 μl of a 0.2M Glycine-semicarbazide buffer (pH 10) containing 3 mM NAD and 14 U/ml LDH was added to each well of a 96-well plate containing 30 μl aliquots of extracellular medium. […] Fluorescence intensity (340 nm excitation/450 nm emission), which represents the amount of NADH produced, was measured, and lactate concentration values were determined relative to a standard curve of L-lactate concentrations. […]

SMILES	levels in the prefrontal cortex [1]	EC50 (primary mouse astrocytes) [nM]
COc1cc(C)c(Cl)cc1S(=O)(=O)NCc1ccncc1 [T5580243]	at therapeutic range	–
Cc1ccccc1NC(=O)C1CCCN(c2ncnc3oc(C)c(C)c23)C1 (stereo not drawn) [F228-0422]	–	590
CC(=O)N1CCc2sc(S(=O)(=O)N3CCN(c4ccccc4C)CC3)cc2C1 [P025-0159]	need chemical improvement	–
